According to ChEMBL document CHEMBL5696442, “Discovery of type II inhibitors of TGFβ-activated kinase 1 (TAK1) and mitogen-activated protein kinase kinase kinase kinase 2 (MAP4K2)” (J Med Chem, 2015):
Active and inactive are the calls of the source. The calls are words filed in the database; no cut-off is given here.

What was measured:
[1] = biological target: Phosphatidylinositol 4-phosphate 3-kinase C2 domain-containing subunit beta (Homo sapiens) (UniProt O00750); assay: Inhibition of PIK3C2B ATP labeling site in human Huh-7 cell lysate at 1 uM by KiNativ Profiling analysis relative to control; assay type: subcellular
Sequence of Phosphatidylinositol 4-phosphate 3-kinase C2 domain-containing subunit beta (Homo sapiens) (O00750 whole entry, the tested form may be a part): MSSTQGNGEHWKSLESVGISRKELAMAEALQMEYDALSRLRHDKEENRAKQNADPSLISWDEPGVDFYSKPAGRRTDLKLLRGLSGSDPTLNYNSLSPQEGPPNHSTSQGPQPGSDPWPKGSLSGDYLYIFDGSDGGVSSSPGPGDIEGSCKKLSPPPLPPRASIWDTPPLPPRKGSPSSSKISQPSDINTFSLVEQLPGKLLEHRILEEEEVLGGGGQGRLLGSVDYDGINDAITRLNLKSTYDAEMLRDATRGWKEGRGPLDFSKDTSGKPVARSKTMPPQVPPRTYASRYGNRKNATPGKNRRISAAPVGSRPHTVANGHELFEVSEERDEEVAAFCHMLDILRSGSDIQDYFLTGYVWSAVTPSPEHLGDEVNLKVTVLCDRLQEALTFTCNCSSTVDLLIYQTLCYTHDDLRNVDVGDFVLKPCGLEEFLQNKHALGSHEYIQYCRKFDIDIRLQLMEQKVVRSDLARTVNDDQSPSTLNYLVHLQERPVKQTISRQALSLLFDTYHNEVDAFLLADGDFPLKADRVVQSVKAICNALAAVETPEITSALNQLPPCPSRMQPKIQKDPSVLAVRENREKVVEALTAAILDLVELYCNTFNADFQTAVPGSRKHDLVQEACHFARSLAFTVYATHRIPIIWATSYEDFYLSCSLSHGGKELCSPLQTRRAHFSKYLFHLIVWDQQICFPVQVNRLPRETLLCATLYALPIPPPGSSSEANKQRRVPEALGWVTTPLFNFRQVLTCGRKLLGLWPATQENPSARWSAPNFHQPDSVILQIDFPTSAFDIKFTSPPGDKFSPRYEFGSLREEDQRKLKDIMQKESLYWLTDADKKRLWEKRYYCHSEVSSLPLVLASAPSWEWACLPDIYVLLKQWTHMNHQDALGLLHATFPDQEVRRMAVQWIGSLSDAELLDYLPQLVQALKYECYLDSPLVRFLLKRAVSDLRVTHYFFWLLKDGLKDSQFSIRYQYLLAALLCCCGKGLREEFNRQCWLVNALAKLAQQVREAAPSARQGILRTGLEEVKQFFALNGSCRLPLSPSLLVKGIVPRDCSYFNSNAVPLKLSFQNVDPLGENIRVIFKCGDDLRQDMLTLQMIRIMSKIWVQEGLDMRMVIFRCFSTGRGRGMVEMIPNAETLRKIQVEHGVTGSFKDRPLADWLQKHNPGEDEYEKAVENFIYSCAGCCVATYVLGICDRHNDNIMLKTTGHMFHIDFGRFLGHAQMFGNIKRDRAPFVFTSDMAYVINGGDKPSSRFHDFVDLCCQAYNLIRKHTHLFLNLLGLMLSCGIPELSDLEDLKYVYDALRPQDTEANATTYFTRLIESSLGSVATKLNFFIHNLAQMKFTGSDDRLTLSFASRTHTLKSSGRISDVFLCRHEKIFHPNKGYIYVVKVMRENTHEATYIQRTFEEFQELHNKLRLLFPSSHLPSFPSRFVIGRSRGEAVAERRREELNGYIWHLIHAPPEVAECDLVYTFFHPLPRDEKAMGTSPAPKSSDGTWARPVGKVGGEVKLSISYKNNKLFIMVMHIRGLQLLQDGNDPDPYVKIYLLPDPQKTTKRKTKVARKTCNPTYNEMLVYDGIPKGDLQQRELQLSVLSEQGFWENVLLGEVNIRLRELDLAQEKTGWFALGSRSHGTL

[2] = biological target: Phosphatidylinositol 4-kinase type 2-beta (Homo sapiens) (UniProt Q8TCG2); assay: Inhibition of PI4K2B ATP labeling site in human Huh-7 cells at 1 uM by KiNativ Profiling analysis relative to control; assay type: cell-based
Sequence of Phosphatidylinositol 4-kinase type 2-beta (Homo sapiens) (Q8TCG2 whole entry): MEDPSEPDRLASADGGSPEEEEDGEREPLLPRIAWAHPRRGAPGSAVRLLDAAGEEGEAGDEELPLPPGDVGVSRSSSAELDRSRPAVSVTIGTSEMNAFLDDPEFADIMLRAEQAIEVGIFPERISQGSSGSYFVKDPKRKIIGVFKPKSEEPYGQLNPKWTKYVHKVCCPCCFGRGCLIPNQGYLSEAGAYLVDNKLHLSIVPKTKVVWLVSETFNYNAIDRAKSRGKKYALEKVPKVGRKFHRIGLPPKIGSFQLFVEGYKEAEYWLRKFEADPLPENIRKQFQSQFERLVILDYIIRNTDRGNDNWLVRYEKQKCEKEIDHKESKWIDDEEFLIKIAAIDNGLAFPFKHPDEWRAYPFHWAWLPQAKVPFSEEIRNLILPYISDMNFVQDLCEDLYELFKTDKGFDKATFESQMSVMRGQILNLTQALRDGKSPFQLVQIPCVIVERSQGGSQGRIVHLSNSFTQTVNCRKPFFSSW

[3] = biological target: Cyclin-dependent kinase 2 (Homo sapiens) (UniProt P24941); assay: Inhibition of CDK2 Lys2 labeling site harbouring VLHRDLKPQNLLINTEGAIK in human Huh-7 cells at 1 uM by KiNativ Profiling analysis relative to control; assay type: cell-based
[4] = biological target: Cyclin-dependent kinase 10 (Homo sapiens) (UniProt Q15131); assay: Inhibition of CDK10 Lys2 labeling site in human Huh-7 cell lysate at 1 uM by KiNativ Profiling analysis relative to control; assay type: subcellular
Sequence of Cyclin-dependent kinase 10 (Homo sapiens) (Q15131 whole entry): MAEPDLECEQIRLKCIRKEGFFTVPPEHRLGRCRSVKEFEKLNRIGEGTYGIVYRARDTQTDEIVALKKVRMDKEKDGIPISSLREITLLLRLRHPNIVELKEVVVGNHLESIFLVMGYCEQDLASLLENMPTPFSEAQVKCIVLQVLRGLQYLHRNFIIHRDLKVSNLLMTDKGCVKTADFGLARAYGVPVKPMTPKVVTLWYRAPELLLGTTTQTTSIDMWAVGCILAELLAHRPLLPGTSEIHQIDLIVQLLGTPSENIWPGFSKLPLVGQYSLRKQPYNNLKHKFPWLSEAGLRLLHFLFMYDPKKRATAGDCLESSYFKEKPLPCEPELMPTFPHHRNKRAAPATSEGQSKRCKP

[5] = biological target: T1, Serine/threonine-protein kinase Nek9 (Homo sapiens) (UniProt Q8TD19); assay: Inhibition of NEK9 ACT labeling site in human A-375 cells at 5 uM by KiNativ Profiling analysis relative to control; assay type: cell-based
T1 sequence (whole entry): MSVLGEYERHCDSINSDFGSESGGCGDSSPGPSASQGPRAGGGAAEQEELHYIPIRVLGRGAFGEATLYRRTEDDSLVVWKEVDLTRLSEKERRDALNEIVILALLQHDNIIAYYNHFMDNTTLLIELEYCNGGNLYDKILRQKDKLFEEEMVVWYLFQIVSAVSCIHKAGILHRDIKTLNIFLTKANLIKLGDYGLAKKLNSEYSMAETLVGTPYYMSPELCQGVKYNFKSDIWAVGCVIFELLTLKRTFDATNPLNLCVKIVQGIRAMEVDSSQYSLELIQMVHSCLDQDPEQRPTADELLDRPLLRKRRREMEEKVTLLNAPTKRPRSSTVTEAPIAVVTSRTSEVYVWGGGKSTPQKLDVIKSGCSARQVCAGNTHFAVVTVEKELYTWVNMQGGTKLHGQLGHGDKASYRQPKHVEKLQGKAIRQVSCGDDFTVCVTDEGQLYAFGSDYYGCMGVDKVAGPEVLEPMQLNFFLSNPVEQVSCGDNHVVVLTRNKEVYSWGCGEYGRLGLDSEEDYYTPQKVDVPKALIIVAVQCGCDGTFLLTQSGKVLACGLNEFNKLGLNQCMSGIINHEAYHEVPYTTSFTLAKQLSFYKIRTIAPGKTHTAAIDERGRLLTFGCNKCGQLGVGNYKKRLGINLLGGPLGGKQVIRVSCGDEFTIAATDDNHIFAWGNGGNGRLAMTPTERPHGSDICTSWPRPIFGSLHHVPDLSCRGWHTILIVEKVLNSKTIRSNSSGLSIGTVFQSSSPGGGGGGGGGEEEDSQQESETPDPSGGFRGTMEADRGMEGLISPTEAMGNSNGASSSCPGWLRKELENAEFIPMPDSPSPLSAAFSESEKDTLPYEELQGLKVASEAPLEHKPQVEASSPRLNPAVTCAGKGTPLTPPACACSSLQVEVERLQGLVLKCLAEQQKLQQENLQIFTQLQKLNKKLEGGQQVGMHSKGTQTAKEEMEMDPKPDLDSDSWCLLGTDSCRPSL

[6] = biological target: Cyclin-dependent kinase 7 (Homo sapiens) (UniProt P50613); assay: Inhibition of CDK7 Lys2 labeling site in human A-375 cells at 0.05 uM by KiNativ Profiling analysis relative to control; assay type: cell-based
Sequence of Cyclin-dependent kinase 7 (Homo sapiens) (P50613 whole entry): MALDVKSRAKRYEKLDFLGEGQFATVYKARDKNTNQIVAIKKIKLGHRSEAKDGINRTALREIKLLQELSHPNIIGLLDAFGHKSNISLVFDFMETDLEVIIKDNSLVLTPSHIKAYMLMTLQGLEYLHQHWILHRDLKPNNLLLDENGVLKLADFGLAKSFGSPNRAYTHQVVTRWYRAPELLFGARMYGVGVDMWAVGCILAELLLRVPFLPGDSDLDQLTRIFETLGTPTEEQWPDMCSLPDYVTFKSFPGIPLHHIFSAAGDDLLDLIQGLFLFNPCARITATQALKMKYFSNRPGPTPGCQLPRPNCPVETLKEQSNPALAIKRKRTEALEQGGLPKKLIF

[7] = biological target: T2, Mitogen-activated protein kinase kinase kinase kinase 2 (Homo sapiens) (UniProt Q12851); assay: Inhibition of MAP4K2 (GCK) Lys1 labeling site in human A-375 cells at 5 uM by KiNativ Profiling analysis relative to control; assay type: cell-based
T2 sequence (whole entry): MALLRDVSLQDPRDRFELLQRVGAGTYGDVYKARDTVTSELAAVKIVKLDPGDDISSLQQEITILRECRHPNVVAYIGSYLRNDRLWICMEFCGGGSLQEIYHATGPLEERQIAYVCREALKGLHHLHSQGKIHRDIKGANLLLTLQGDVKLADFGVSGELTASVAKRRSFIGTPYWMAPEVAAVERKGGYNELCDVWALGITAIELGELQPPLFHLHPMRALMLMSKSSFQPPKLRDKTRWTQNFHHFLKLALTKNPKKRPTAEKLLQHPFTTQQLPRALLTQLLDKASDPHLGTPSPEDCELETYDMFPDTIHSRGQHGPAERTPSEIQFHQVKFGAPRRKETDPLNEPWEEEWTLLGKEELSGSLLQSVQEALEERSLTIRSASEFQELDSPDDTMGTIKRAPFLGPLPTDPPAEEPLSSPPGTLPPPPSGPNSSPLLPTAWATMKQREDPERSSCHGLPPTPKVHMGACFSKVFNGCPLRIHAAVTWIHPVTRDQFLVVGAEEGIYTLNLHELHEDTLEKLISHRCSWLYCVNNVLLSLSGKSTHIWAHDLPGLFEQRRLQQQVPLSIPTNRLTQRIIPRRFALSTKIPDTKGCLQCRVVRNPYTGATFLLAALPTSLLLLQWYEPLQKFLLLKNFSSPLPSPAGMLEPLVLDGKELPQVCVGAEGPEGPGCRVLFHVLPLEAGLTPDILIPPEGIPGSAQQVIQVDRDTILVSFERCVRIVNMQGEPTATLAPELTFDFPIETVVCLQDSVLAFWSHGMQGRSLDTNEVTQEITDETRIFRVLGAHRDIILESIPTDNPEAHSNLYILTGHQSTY

[8] = biological target: Receptor tyrosine-protein kinase erbB-2 (Homo sapiens) (UniProt P04626); assay: Inhibition of ERBB2 (unknown origin) at 10 uM by Ambit Kinomescan binding assay
[9] = biological target: Tyrosine-protein kinase Fes/Fps (Homo sapiens, UniProt P07332); assay: Inhibition of FES (unknown origin) at 10 uM by Ambit Kinomescan binding assay relative to control; values are per cent of control
Sequence of Tyrosine-protein kinase Fes/Fps (P07332 whole entry): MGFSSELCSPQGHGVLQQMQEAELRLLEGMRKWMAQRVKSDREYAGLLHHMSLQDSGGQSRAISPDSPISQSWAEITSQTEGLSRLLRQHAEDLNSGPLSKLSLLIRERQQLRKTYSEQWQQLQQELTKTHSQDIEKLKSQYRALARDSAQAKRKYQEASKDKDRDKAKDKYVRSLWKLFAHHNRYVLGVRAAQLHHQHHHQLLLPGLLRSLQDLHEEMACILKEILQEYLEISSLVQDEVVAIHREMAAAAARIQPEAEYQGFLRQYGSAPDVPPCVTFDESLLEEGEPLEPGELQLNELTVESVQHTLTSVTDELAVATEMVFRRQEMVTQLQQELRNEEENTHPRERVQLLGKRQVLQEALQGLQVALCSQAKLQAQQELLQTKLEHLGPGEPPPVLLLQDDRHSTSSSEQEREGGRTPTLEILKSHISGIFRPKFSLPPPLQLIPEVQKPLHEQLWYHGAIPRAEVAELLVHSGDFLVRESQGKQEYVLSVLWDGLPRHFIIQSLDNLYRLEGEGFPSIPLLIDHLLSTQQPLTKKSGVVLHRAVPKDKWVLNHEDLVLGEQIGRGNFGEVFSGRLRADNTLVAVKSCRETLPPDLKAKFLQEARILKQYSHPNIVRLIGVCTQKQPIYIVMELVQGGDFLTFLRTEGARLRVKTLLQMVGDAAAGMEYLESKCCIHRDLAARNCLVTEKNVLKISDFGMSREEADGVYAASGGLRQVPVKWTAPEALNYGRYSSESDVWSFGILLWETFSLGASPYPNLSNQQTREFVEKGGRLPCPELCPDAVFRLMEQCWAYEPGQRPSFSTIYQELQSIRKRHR

[10] = biological target: Wee1-like protein kinase (Homo sapiens) (UniProt P30291); assay: Inhibition of Wee1 K2 labeling site in human Huh-7 cells at 1 uM by KiNativ Profiling analysis relative to control; assay type: cell-based
[11] = biological target: Ephrin type-B receptor 1 (Homo sapiens) (UniProt P54762); assay: Inhibition of EPHB1 (unknown origin) at 10 uM by Ambit Kinomescan binding assay
Sequence of Ephrin type-B receptor 1 (Homo sapiens) (P54762 whole entry): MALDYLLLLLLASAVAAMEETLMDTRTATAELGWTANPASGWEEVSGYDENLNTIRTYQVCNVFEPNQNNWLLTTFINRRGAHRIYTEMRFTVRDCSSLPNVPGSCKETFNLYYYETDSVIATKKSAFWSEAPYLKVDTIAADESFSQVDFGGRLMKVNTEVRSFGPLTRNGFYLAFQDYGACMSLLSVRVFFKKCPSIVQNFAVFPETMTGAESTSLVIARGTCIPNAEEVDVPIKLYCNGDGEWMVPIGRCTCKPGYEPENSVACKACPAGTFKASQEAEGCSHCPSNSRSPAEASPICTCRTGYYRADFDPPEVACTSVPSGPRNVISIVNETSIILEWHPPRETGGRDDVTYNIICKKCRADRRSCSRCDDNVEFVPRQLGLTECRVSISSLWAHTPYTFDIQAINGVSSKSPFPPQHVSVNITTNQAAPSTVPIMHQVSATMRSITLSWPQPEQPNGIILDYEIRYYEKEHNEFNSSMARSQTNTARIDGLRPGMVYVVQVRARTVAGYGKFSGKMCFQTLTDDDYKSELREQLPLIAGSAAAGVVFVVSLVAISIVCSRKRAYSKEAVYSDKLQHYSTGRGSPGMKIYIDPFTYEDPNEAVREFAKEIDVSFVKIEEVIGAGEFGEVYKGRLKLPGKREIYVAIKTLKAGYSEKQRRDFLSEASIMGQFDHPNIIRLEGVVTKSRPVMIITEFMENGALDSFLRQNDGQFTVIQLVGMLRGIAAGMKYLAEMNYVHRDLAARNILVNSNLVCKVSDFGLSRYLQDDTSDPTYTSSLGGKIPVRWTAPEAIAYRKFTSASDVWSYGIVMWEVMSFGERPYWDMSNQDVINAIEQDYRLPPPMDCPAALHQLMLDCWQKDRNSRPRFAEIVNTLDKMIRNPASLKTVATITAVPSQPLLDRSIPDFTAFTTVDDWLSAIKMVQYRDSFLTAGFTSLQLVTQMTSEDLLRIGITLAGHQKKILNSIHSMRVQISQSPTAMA

[12] = biological target: Tyrosine-protein kinase ITK/TSK (Homo sapiens) (UniProt Q08881); assay: Inhibition of ITK (unknown origin) at 10 uM by Ambit Kinomescan binding assay
[13] = biological target: AMPK alpha1/alpha2 (Homo sapiens) (UniProt P54646+Q13131); assay: Inhibition of AMPK alpha1/2 K2 labeling site in human Huh-7 cells at 1 uM by KiNativ Profiling analysis relative to control; assay type: cell-based
[14] = biological target: Cyclin-dependent kinase 14 (Homo sapiens) (UniProt O94921); assay: Inhibition of PFTAIRE1 Lys2 labeling site in human A-375 cells at 5 uM by KiNativ Profiling analysis relative to control

`CNc1cc(Oc2cc(C(=O)Nc3cc(N4CCN(C)CC4)cc(C(F)(F)F)c3)ccc2C)ncn1` showed an inhibition [1] of 9%, an inhibition [2] of 16% and an inhibition [3] of 29.3%. It also gave an inhibition [4] of 2.7%.
In the case of `CCN1CCN(Cc2ccc(NC(=O)c3ccc(C)c(/C=C/c4cnc5[nH]ccc5c4OC)c3)cc2C(F)(F)F)CC1`, the inhibition [5] is reported as 14.9% and the inhibition [6] is reported as 32.7%.
For `CCN1CCN(Cc2ccc(NC(=O)c3ccc(C)c(Oc4ccnc5[nH]ccc45)c3)cc2C(F)(F)F)CC1`, the inhibition [7] was greater than 99.5%, the inhibition [8] was “inactive” and the percent of control [9] was 2.2%. For the same molecule, the inhibition [10] was 1.5%, the inhibition [11] was “inactive” and the inhibition [12] was “inactive”. For the same molecule, the inhibition [13] was 12.5% and the inhibition [14] was 77.8%.
